Columns and labels:
[1] = tested on: UO-31; test: Anticancer activity against human UO-31 cells assessed as inhibition of cell growth at 10 uM incubated for 48 hrs by SRB assay; format: functional; conditions: UO-31, 48 h, values are per cent of control
[2] = Selectivity index, ratio of GI50 for human HaCaT cells to GI50 for human U-251 cells; format: toxicity; conditions: HaCaT cells versus U-251 cells, read-out: RatioGI50
[3] = tested on: Jurkat; test: Anticancer activity against human Jurkat cells assessed as cell growth inhibition incubated for 72 hrs by MTT assay; format: functional
[4] = tested on: A549; test: Anticancer activity against human A549 cells assessed as cell growth inhibition incubated for 72 hrs by MTT assay; format: functional
[5] = tested on: MCF7; test: Anticancer activity against human MCF7 cells assessed as cell growth inhibition incubated for 72 hrs by MTT assay; format: functional
[6] = tested on: MDA-MB-231; test: Anticancer activity against human MDA-MB-231 cells assessed as cell growth inhibition incubated for 72 hrs by MTT assay; format: functional
[7] = tested on: HeLa; test: Anticancer activity against human HeLa cells assessed as cell growth inhibition incubated for 72 hrs by MTT assay; format: functional
[8] = tested on: HCT-116; test: Anticancer activity against human HCT-116 cells assessed as cell growth inhibition incubated for 72 hrs by MTT assay; format: functional
[9] = Anticancer activity against human HCT116-p53-null cells assessed as cell growth inhibition incubated for 72 hrs by MTT assay; format: functional
[10] = tested on: U-251; test: Anticancer activity against human U-251 cells assessed as cell growth inhibition incubated for 72 hrs by MTT assay; format: functional
[11] = tested on: SK-OV-3; test: Anticancer activity against human SK-OV-3 cells assessed as cell growth inhibition incubated for 72 hrs by MTT assay; format: functional
[12] = Cytotoxicity against human HaCaT cells assessed as cell growth inhibition incubated for 72 hrs by MTT assay; format: toxicity, cell-based
[13] = Selectivity index, ratio of GI50 for human HaCaT cells to GI50 for human Jurkat cells; format: toxicity; conditions: HaCaT cells versus Jurkat cells, read-out: RatioGI50
[14] = Selectivity index, ratio of GI50 for human HaCaT cells to GI50 for human A549 cells; format: toxicity; conditions: HaCaT cells versus A549 cells, read-out: RatioGI50
[15] = Selectivity index, ratio of GI50 for human HaCaT cells to GI50 for human MCF7 cells; format: toxicity; conditions: HaCaT cells versus MCF7 cells, read-out: RatioGI50
[16] = Selectivity index, ratio of GI50 for human HaCaT cells to GI50 for human MDA-MB-231 cells; format: toxicity; conditions: HaCaT cells versus MDA-MB-231 cells, read-out: RatioGI50
[17] = Selectivity index, ratio of GI50 for human HaCaT cells to GI50 for human HeLa cells; format: toxicity; conditions: HaCaT cells versus HeLa cells, read-out: RatioGI50
[18] = Selectivity index, ratio of GI50 for human HaCaT cells to GI50 for human HCT-116 cells; format: toxicity; conditions: HaCaT cells versus HCT-116 cells, read-out: RatioGI50
[19] = Selectivity index, ratio of GI50 for human HaCaT cells to GI50 for human HCT116-p53-null cells; format: toxicity; conditions: HaCaT cells versus HCT116-p53-null cells, read-out: RatioGI50
[20] = Selectivity index, ratio of GI50 for human HaCaT cells to GI50 for human SK-OV-3 cells; format: toxicity; conditions: HaCaT cells versus SK-OV-3 cells, read-out: RatioGI50
[21] = tested on: LOX IMVI; test: Anticancer activity against human LOX IMVI cells assessed as inhibition of cell growth at 10 uM incubated for 48 hrs by SRB assay; format: functional
[22] = tested on: RPMI-8226; test: Anticancer activity against human RPMI-8226 cells assessed as inhibition of cell growth at 10 uM incubated for 48 hrs by SRB assay; format: functional
[23] = tested on: MCF7; test: Anticancer activity against human MCF7 cells assessed as inhibition of cell growth at 10 uM incubated for 48 hrs by SRB assay; format: functional; conditions: MCF7, 48 h, values are per cent of control
[24] = tested on: UACC-62; test: Anticancer activity against human UACC-62 cells assessed as inhibition of cell growth at 10 uM incubated for 48 hrs by SRB assay; format: functional
[25] = tested on: Salmon testes DNA; test: Displacement of methyl green from salmon sperm DNA at 10 uM measured after 2 hrs by fluorescence plate reader method relative to control; format: nucleic-acid assay; conditions: Salmo salar
[26] = tested on: MOLT-4; test: Anticancer activity against human MOLT-4 cells assessed as inhibition of cell growth at 10 uM incubated for 48 hrs by SRB assay; format: functional
[27] = tested on: CAKI-1; test: Anticancer activity against human CAKI-1 cells assessed as inhibition of cell growth at 10 uM incubated for 48 hrs by SRB assay; format: functional; conditions: CAKI-1, 48 h, values are per cent of control
[28] = tested on: MDA-MB-435; test: Anticancer activity against human MDA-MB-435 cells assessed as inhibition of cell growth at 10 uM incubated for 48 hrs by SRB assay; format: functional
[29] = tested on: KB 3-1; test: Anticancer activity against human KB 3-1 cells assessed as cell growth inhibition incubated for 72 hrs by MTT assay; format: functional
[30] = Selectivity index, ratio of GI50 for human HaCaT cells to GI50 for human KB 3-1 cells; format: toxicity; conditions: HaCaT cells versus KB 3-1 cells, read-out: RatioGI50
[31] = Cytotoxicity against mitogen activated human peripheral blood lymphocytes assessed as cell growth inhibition incubated for 24 hrs by MTT assay; format: toxicity, cell-based, Lymphocyte
[32] = Cytotoxicity against mitogen activated human peripheral blood lymphocytes assessed as cell growth inhibition incubated for 48 hrs by MTT assay; format: toxicity, cell-based, Lymphocyte

Row | SMILES | selectivity ratio [2] | GI50 [3] | GI50 [4] | GI50 [5] | GI50 [6] | GI50 [7] | GI50 [8] | GI50 [9] | GI50 [10] | GI50 [11] | GI50 at 72 h [12] | selectivity ratio [13] | selectivity ratio [14] | selectivity ratio [15] | selectivity ratio [16] | selectivity ratio [17] | selectivity ratio [18] | selectivity ratio [19] | selectivity ratio [20] | also measured
1 | O=C1CC(N2C(=O)CSC2=S)C(=O)N1c1ccc(Cl)cc1 (stereo not given) | 0.98 | 88.4 µM | > 100 µM | > 100 µM | > 100 µM | > 100 µM | > 100 µM | > 100 µM | > 100 µM | > 100 µM | 97.7 µM | 1.1 | 0.98 | 0.98 | 0.98 | 1 | 0.98 | 0.98 | 0.98 | growth, % of control at 10 µM [1]: 76.3%
2 | O=C1Nc2ccccc2/C1=C1/SC(=S)N(C2CC(=O)N(c3ccc(Br)cc3)C2=O)C1=O (stereo not given) | 1 | 21.5 µM | > 100 µM | > 100 µM | > 100 µM | > 100 µM | > 100 µM | > 100 µM | > 100 µM | > 100 µM | > 100 µM | 4.65 | 1 | 1 | 1 | 1 | 1 | 1 | 1 | inhibition at 10 µM [21]: 33.8%; inhibition at 10 µM [22]: 50%; growth, % of control at 10 µM [23]: 45.7%
3 | O=C1Nc2ccccc2/C1=C1/SC(=S)N(C2CC(=O)N(c3ccc(Cl)cc3)C2=O)C1=O (stereo not given) | 1 | 49.9 µM | > 100 µM | > 100 µM | > 100 µM | > 100 µM | > 100 µM | > 100 µM | > 100 µM | > 100 µM | > 100 µM | 2 | 1 | 1 | 1 | 1 | 1 | 1 | 1 | growth, % of control at 10 µM [1]: 68.5%; inhibition at 10 µM [22]: 36.3%
4 | C=CCOc1cccc(/C=C2\SC(=S)N(C3CC(=O)N(c4ccc(Br)cc4)C3=O)C2=O)c1 (stereo not given) |  |  |  |  |  |  |  |  |  |  |  |  |  |  |  |  |  |  |  | inhibition at 10 µM [24]: 86.8%
5 | CC[n+]1c(-c2ccccc2)c2cc(N)ccc2c2ccc(N)cc21 |  |  |  |  |  |  |  |  |  |  |  |  |  |  |  |  |  |  |  | Activity [25]: 84.1%
6 | C=CCOc1cccc(/C=C2\SC(=S)N(C3CC(=O)N(c4ccc(Cl)cc4)C3=O)C2=O)c1 (stereo not given) | 1 | 74 µM | > 100 µM | 98 µM | > 100 µM | > 100 µM | > 100 µM | > 100 µM | > 100 µM | > 100 µM | > 100 µM | 1.35 | 1 | 1.02 | 1 | 1 | 1 | 1 | 1 | inhibition at 10 µM [21]: 14.2%
7 | O=C1CC(N2C(=O)CSC2=S)C(=O)N1c1ccc(O)cc1 (stereo not given) | 1 | 23.4 µM | > 100 µM | > 100 µM | > 100 µM | > 100 µM | > 100 µM | > 100 µM | > 100 µM | 60.8 µM | > 100 µM | 4.27 | 1 | 1 | 1 | 1 | 1 | 1 | 1.64 | 
8 | O=C1Nc2ccc(Cl)cc2/C1=C1/SC(=S)N(C2CC(=O)N(c3ccc(Cl)cc3)C2=O)C1=O (stereo not given) | 1 | 6.1 µM | > 100 µM | > 100 µM | > 100 µM | 58 µM | > 100 µM | > 100 µM | > 100 µM | > 100 µM | > 100 µM | 16.4 | 1 | 1 | 1 | 1.72 | 1 | 1 | 1 | 
9 | CCN(CC)c1ccc(/C=C2\SC(=S)N(C3CC(=O)N(c4ccc(Cl)cc4)C3=O)C2=O)cc1 (stereo not given) |  |  |  |  |  |  |  |  |  |  |  |  |  |  |  |  |  |  |  | inhibition at 10 µM [24]: 73.3%; inhibition at 10 µM [26]: 76%
10 | C=CCOc1ccccc1/C=C1\SC(=S)N(C2CC(=O)N(c3ccc(Cl)cc3)C2=O)C1=O (stereo not given) | 1.1 | 53.3 µM | > 100 µM | 80.3 µM | 98.6 µM | 47.5 µM | 57.1 µM | 9.6 µM | 91.2 µM | > 100 µM | > 100 µM | 1.88 | 1 | 1.25 | 1.01 | 2.1 | 1.75 | 10.4 | 1 | growth, % of control at 10 µM [27]: 72.2%; inhibition at 10 µM [28]: 68.2%; GI50 [29]: > 100 µM; selectivity ratio [30]: 1; GI50 at 24 h [31]: > 100 µM; GI50 at 48 h [32]: > 100 µM

Reference: ChEMBL document CHEMBL5113392, “Novel hybrid pyrrolidinedione-thiazolidinones as potential anticancer agents: Synthesis and biological evaluation” (Eur J Med Chem, 2022)
